“And” between values parts separate entries of the source, which are not always exact repeats. Equal entries are not always repeated.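 96-well plates; 48 h exposure; 5 concentrations. Endpoints by linear interpolation between flanking doses. Not reached: highest tested concentration assigned. Abbreviation: GI50, concentration required for 50% inhibition of growth. TGI marks complete inhibition of growth.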
Experiments:
Test in all cases: growth of human tumour cells (NCI), 48 h
[1] = system: DU-145 prostate
[2] = system: COLO 205 colon
[3] = system: UACC-257 melanoma
[4] = system: RPMI-8226 leukemia
[5] = system: UO-31 renal
[6] = system: SF-295 CNS
[7] = system: NCI-H226 lung
[8] = system: HOP-62 NSCLC
[9] = system: EKVX NSCLC

| SMILES | TGI [1] | TGI [2] | TGI [3] | TGI [4] [µM] | TGI [5] | TGI [6] | TGI [7] | TGI [8] | TGI [9] | GI50 [2] [µM] | GI50 [4] [µM] | GI50 [5] [µM] | GI50 [7] [µM] | GI50 [1] [µM] | GI50 [3] [µM] | GI50 [8] [µM] | GI50 [9] [µM] | GI50 [6] [µM] |
| --- | --- | --- | --- | --- | --- | --- | --- | --- | --- | --- | --- | --- | --- | --- | --- | --- | --- | --- |
| CN1CCN(C2=CC(=O)c3c(O)ccc(O)c3C2=O)CC1 | 3.13 µM | 0.31 µM | 0.467 µM | 6.25 | 2.92 µM | 3.09 µM | 2.96 µM | 2.16 µM | 3.26 µM |  |  |  |  |  |  |  |  |  |
| Cc1ccc(N=C2C(=Nc3ccc(C)cc3)N(c3ccc(C)cc3)C(=S)N2C(=O)c2ccccc2)cc1 | > 100 µM | > 100 µM |  | > 100 | > 100 µM | 32.3 µM | > 100 µM | > 100 µM | > 100 µM |  |  |  |  |  |  |  |  |  |
| CC1=C(C)C(=O)C(C2=CC(=O)C=CC2=O)=C(C2=CC(=O)C=CC2=O)C1=O | > 100 µM | > 100 µM | > 100 µM |  | > 100 µM | > 100 µM | > 100 µM | > 100 µM | > 100 µM |  |  |  |  |  |  |  |  |  |
| CC(=O)Nc1ccccc1NC1CC(C)N(c2ccccc2)N1C(C)=O (stereo unspecified) | > 10 µM | > 10 µM | > 10 µM | > 10 |  | > 10 µM |  | > 10 µM | > 10 µM |  |  |  |  |  |  |  |  |  |
| CSc1scc2c1/C(=N/NC(N)=O)CCC2 | > 100 µM | > 100 µM | > 100 µM | > 100 | > 100 µM | > 100 µM | > 100 µM | > 100 µM |  |  |  |  |  |  |  |  |  |  |
| CC(=O)OC1COC(Nc2nc(N)n(C)c(=O)c2N=O)C(OC(C)=O)C1OC(C)=O (stereo unspecified) | > 10 µM | > 10 µM | > 10 µM | > 10 |  | > 10 µM | > 10 µM | > 10 µM | > 10 µM |  |  |  |  |  |  |  |  |  |
| O=[N+]([O-])C(Cl)=C/C(=C(\Cl)SCc1ccccc1)[N+](=O)[O-] | > 100 µM | 32.3 µM | 79.7 µM |  | 40.2 µM | 99.6 µM | 75.9 µM | 36.2 µM | 35.2 µM |  |  |  |  |  |  |  |  |  |
| COC(=O)C1=C(C(=O)OC)SC2(S1)C(C(=O)OC)=C(C(=O)OC)Sc1c2ssc1=NC(C)(C)C | 2.17 µM | 3.22 µM | 3.05 µM |  | 3.34 µM | 27.7 µM | 12.8 µM | 15.5 µM | 3.36 µM |  |  |  |  |  |  |  |  |  |
| C=CCn1c(-c2ccc([N+](=O)[O-])cc2)csc1=N | > 100 µM | > 100 µM | > 100 µM |  | > 100 µM | > 100 µM | > 100 µM | > 100 µM | > 100 µM |  |  |  |  |  |  |  |  |  |
| O=C(N/N=C/c1cc(Br)cc(Br)c1[O-])c1ccccc1O.O=C(N/N=C/c1cc(Br)cc(Br)c1[O-])c1ccccc1O.[Ni+2] |  | 3.22 µM | 2.28 µM |  | 8.5 µM | 1.11 µM | 1.56 µM | 1.82 µM | 2.97 µM |  |  |  |  |  |  |  |  |  |
| Cc1cc(S(=O)(=O)/N=C(/NN)NNc2cccc(C(F)(F)F)n2)c(S)cc1Cl | 34.1 µM | 38.5 µM | 89.9 µM | > 100 | 37.2 µM |  | 46 µM | 86.4 µM | 63.8 µM |  |  |  |  |  |  |  |  |  |
| Cc1nc2ccccc2c(/C=C/c2ccc(Cl)cc2)c1C(=O)/C=C/c1ccccc1 |  | 4.62 µM |  | 6.5 | 2.4 µM |  | 3.22 µM |  |  | 1.98 | 1.26 | 1.18 | 1.58 |  |  |  |  |  |
| CCOC(=O)c1c(-c2cccc3ccccc23)c(C#N)c(=S)n(C2OC(COC(C)=O)C(OC(C)=O)C(OC(C)=O)C2OC(C)=O)c1C (stereo unspecified) | > 100 µM | > 100 µM | > 100 µM |  | 3.49 µM | > 100 µM | > 100 µM | > 100 µM |  |  |  |  |  |  |  |  |  |  |
| CCOC(=O)C(NC(=O)OC(C)(C)C)C(=O)OCC | > 100 µM | > 100 µM | > 100 µM | > 100 | > 100 µM |  |  | > 100 µM | > 100 µM |  |  |  |  |  |  |  |  |  |
| COc1ccc2nc3cc(Cl)ccc3c(NCCNc3c4ccc(Cl)cc4nc4ccc(OC)cc34)c2c1 | 3.08 µM | 3.39 µM | 3.69 µM | 4.59 |  |  |  |  |  | 1.64 | 2.04 |  |  | 1.68 | 2.06 |  |  |  |
| CCC(NC1=NCCO1)c1cccs1 (stereo unspecified) | 28.5 µM | 34.9 µM | 35.8 µM | > 100 | 32.7 µM | 28.4 µM | 37.1 µM |  | 31.1 µM |  |  |  |  |  |  |  |  |  |
| COc1ccc(-c2nn(-c3ccc(NC(=O)Nc4ccc(Cl)c(C(F)(F)F)c4)cc3)cc2-c2ccncc2)cc1Cl | 20.6 µM | 3.13 µM | 4.91 µM | 1.92 | 3.05 µM |  | 8.78 µM | 4.45 µM | 14.4 µM | 1.62 | 0.388 | 1.1 | 2.59 | 3.07 | 1.94 | 1.81 | 1.83 |  |
| CC(=O)c1c2n(n(-c3ccccc3)c1=O)C(=O)c1nccnc1-2 | > 100 µM | > 100 µM | > 100 µM | > 100 | > 100 µM | > 100 µM | > 100 µM |  | > 100 µM |  |  |  |  |  |  |  |  |  |

| SMILES | TGI [1] | TGI [2] | TGI [3] | TGI [4] [µM] | TGI [5] | TGI [6] | TGI [7] | TGI [8] | TGI [9] | GI50 [2] [µM] | GI50 [4] [µM] | GI50 [5] [µM] | GI50 [7] [µM] | GI50 [1] [µM] | GI50 [3] [µM] | GI50 [8] [µM] | GI50 [9] [µM] | GI50 [6] [µM] |
| --- | --- | --- | --- | --- | --- | --- | --- | --- | --- | --- | --- | --- | --- | --- | --- | --- | --- | --- |
| O=C(CSc1nc2ccccc2c(=O)n1-c1ccccc1)N=Nc1c(O)[nH]c2ccc(F)cc12 | 4.17 µM | 5.73 µM | 6 µM | 4.65 | 3.73 µM |  |  | 6.77 µM | 5.57 µM |  |  |  |  |  |  |  |  |  |
| CCN1CCC(O)(/C=C/c2ccc(C(C)C)cc2)C(C(=O)/C=C/c2ccc(C(C)C)cc2)C1 (stereo unspecified) | 9.76 µM | 5.11 µM | 19.4 µM |  | 7.88 µM | 9.36 µM | 9.06 µM | 13.3 µM | 5.74 µM |  |  |  |  |  |  |  |  |  |
| OC(CC(O)(C(F)(F)F)C(F)(F)F)c1ccc(C(O)CC(O)(C(F)(F)F)C(F)(F)F)cc1 (stereo unspecified) | 28.3 µM |  | 32.2 µM | 48.8 | 23 µM | 32.5 µM |  | 35 µM | 28 µM |  |  |  |  |  |  |  |  |  |
| CCOc1ccc2c(c1)c(=O)c1c(NCCN(CC)CC)ccc3nnn2c31 | 54.4 µM | > 54 µM | > 59.6 µM | > 65.1 |  | > 56.4 µM | > 100 µM | > 48.8 µM | > 100 µM |  |  |  |  |  |  |  |  |  |
| Cc1ccc(-n2cc([Si](C)(C)C)nn2)s1 | > 100 µM | > 100 µM | > 100 µM | > 100 | > 100 µM | > 100 µM | > 100 µM |  |  |  |  |  |  |  |  |  |  |  |
| C=C(c1ccccc1)c1ccccc1-c1cc(-c2ccccc2)cc(-c2ccccc2)n1 | > 100 µM |  | > 100 µM | > 100 | > 100 µM | > 100 µM | > 100 µM | > 100 µM | > 100 µM |  |  |  |  |  |  |  |  |  |
| O=c1[nH]c(=S)c2cc3c(=S)[nH]c(=O)n(CCO)c3nc2n1CCO |  | > 100 µM | > 100 µM | > 100 | > 100 µM | > 100 µM | > 100 µM | > 100 µM | > 100 µM |  |  |  |  |  |  |  |  |  |
| O=c1c2ccccc2nc(N/N=C/c2ccccc2O)n1-c1ccccc1 | > 100 µM | > 100 µM | > 100 µM |  | > 100 µM | > 100 µM | > 100 µM | > 100 µM |  |  |  |  |  |  |  |  |  |  |
| Cn1c(O)c(C=Nc2ccccc2Cl)c(=O)n(C)c1=O |  | > 100 µM | > 100 µM | 51.7 | > 100 µM | 80.5 µM | > 100 µM | 52.4 µM | > 100 µM |  |  |  |  |  |  |  |  |  |
| COC1OC2=CCC3C(=O)NC(=O)C3C2[C@H](OCc2ccccc2)C1OCc1ccccc1 (stereo partly specified) |  |  | 3.68 µM |  | 32.2 µM | 32.7 µM |  | 31.7 µM | 3.39 µM |  |  |  |  |  |  |  |  |  |
| CCOC(=O)N1CCC(=C2c3ccc(Cl)cc3CCc3cccnc32)CC1 | 26.9 µM | 21.6 µM | 29.6 µM | 32.9 | 4.49 µM |  | 40.6 µM | 36.3 µM | 28.1 µM |  |  |  |  |  |  |  |  |  |
| COc1ccc(C2=NN=C3C(c4ccccc4)=Nc4ccccc4N3C2)cc1 | 70.7 µM | 70.7 µM | > 100 µM | > 100 | 49.8 µM |  | > 100 µM | > 100 µM | > 100 µM |  |  |  |  |  |  |  |  |  |
| CN(Cc1cc(Cl)c(Cl)cc1NC(=O)CN)[C@H]1CCCC[C@@H]1N1CCCC1 |  | 33.9 µM | 31.7 µM |  | > 100 µM | 36.6 µM | > 100 µM | > 100 µM | > 100 µM |  |  |  |  |  |  |  |  |  |
| CCCC(=O)[O-].N.N.N.N.N.[Co+3].[O-][Cl+3]([O-])([O-])[O-] |  | > 100 µM | > 100 µM | > 100 | > 100 µM | > 100 µM |  | > 100 µM | > 100 µM |  |  |  |  |  |  |  |  |  |
| C=CCC(C(=O)Nc1cccc2[nH]cnc12)C(=O)OCC (stereo unspecified) | > 100 µM |  | > 100 µM | > 100 | > 100 µM | > 100 µM | > 100 µM | > 100 µM | > 100 µM |  |  |  |  |  |  |  |  |  |
| C=C(C(=O)O[C@H]1C(=O)C2=C(C)CCC3C(=C)C(=O)O[C@@H]3C2[C@]1(C)O)C1CC[C@]2(C)CCCC(=C)[C@H]2C1 (stereo partly specified) | 11.3 µM and 10.3 µM | 23 µM and 34.8 µM | 14 µM and 12 µM |  | 12 µM and 16.5 µM | 9.37 µM and 29.5 µM | 16 µM and 36.6 µM | 10.2 µM and 20.5 µM | 17.8 µM and 22.7 µM | 13.7 |  |  | 6.81 | 5.37 |  | 3.09 |  | 0.0252 |
| Oc1ccc(Cl)cc1C1=NC(/N=C\c2ccccc2)=NC(c2ccccc2)C1 (stereo unspecified) | > 100 µM | > 100 µM | > 100 µM |  | 74.1 µM | > 100 µM | > 100 µM | > 100 µM | > 100 µM |  |  |  |  |  |  |  |  |  |
